Assay results published in patent publication EP2573192A1, “METHOD AND KIT FOR DIAGNOSING AIM-RELATED ILLNESS” (Miyazaki, Toru, priority 2010, dated 2011).

Biological target: FAS (Mus musculus, UniProt P19096)
Assay: FAS activity of treated 3T3-L1 cells (method of Kelley, NADPH oxidation)
Assay type: cell-based
Details: C75 25 µM, 6 days; compared with rAIM
Protocol: The influence of AIM on FAS activity of adipocyte or adipose tissue was examined. FAS activity was measured by the method of Kelley (Kelley et al., Biochem. J., 1986, 235:87-90) with slight modification. 3T3-L1 adipocytes, or lysates of adipose tissue of obese mice was mixed with acetyl-CoA and NADPH (0.2 M calcium phosphate buffer [pH 7.0] containing 0.4 mM EDTA), and the mixture was placed in a spectrophotometer cuvette and maintained at 30°C. 20 µl of malonyl-CoA solution (0.2 mM) was added to start an enzyme reaction and decrease of OD was measured at a chart speed 2 cm/min. Based on the results, the enzyme activity of FAS was evaluated using the molar extinction coefficient of oxidized NADPH as 6220.
First, the FAS activity of 3T3-L1 cells treated for 6 days in the presence or absence of rAIM (5 µg/ml), and in the presence of C75 (25 µM) was measured. […] The samples were dissolved (lysed) and the FAS activity was measured. The data was converted to that based on FAS protein, according to the results of WB performed using the same sample.

Sequence of FAS (P19096 whole entry): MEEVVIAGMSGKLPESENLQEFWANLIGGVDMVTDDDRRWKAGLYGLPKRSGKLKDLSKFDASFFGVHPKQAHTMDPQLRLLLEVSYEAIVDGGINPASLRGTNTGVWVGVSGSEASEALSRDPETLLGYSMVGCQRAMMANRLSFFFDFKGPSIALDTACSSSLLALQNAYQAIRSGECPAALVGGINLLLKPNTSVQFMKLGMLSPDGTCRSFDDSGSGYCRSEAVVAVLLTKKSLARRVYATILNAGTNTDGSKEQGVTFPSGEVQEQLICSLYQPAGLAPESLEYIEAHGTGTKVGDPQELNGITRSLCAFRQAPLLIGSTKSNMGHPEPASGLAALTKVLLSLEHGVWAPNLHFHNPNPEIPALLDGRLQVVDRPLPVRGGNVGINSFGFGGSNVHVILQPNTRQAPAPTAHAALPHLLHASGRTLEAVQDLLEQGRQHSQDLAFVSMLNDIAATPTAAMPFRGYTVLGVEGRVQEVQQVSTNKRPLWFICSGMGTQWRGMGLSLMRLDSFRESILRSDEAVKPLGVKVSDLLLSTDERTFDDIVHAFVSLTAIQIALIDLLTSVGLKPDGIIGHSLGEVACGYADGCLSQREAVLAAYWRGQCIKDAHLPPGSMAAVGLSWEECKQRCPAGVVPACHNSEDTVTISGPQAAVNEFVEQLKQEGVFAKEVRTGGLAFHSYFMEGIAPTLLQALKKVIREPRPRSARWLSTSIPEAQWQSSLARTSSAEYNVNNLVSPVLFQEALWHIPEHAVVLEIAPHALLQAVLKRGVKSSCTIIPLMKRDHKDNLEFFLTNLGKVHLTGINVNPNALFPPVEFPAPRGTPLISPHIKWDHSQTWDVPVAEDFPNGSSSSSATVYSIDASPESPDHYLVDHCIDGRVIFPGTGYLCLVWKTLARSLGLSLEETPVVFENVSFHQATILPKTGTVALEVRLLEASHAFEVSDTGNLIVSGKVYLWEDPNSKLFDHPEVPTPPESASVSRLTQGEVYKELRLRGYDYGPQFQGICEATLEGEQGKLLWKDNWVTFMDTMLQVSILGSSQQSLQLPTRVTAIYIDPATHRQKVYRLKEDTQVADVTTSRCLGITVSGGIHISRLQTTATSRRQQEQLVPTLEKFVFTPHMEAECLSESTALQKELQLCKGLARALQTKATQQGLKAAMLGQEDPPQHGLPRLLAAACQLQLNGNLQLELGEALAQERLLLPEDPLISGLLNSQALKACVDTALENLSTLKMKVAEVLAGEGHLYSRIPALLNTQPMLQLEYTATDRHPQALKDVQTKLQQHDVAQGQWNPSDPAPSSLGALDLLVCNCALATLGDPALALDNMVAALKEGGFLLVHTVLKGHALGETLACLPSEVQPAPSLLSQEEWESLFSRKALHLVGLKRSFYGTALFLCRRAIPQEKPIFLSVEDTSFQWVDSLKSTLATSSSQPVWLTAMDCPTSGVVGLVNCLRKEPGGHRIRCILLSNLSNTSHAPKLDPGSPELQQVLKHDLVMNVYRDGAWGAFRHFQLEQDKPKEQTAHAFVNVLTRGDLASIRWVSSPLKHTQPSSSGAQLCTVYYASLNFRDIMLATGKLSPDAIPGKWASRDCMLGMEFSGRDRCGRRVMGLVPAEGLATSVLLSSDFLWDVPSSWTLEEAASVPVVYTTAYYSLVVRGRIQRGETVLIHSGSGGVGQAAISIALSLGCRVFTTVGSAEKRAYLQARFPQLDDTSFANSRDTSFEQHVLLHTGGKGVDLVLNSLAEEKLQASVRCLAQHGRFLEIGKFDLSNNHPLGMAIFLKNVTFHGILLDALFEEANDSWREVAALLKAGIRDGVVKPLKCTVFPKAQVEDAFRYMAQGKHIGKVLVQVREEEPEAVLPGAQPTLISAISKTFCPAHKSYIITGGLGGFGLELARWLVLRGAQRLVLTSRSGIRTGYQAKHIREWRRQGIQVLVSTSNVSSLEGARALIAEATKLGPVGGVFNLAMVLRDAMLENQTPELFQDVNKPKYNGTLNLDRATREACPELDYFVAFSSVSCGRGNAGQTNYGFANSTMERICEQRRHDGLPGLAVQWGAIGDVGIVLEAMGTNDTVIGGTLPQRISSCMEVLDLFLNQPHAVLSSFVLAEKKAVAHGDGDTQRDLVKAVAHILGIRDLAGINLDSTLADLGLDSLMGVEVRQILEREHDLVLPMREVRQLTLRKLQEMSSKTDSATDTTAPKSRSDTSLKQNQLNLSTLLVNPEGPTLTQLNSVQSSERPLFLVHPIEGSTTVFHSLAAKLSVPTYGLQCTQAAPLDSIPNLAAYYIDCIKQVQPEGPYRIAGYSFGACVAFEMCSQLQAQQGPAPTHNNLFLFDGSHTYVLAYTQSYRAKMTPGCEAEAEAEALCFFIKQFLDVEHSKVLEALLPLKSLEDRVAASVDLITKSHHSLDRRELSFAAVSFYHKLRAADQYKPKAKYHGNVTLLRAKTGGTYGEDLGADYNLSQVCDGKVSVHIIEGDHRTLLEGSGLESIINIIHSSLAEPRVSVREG

level of suppression of FAS activity in 3T3-L1 adipocytes: level of suppression was the same
Structure (SMILES): C=C1C(=O)OC(CCCCCCCC)C1C(=O)O (stereo not shown) [C75]
